# From patent US20260297508A1, “MODULATORS OF PROTEIN SECRETION” (SANOFI, priority 2023, published 2026)
# Assays:
# [1] = test system: biotin-induced antibody release, U2OS clone #7 cells; test: High-throughput RUSH screen: biotin-induced cytoplasmic GFP signal decay (antibody release), U2OS clone #7; type: cell-based, human; conditions: for secretion activator at both low and high concentration (consistently decreased fluorescent signal, among 20 best activators): Prestwick library; for decrease of intracytoplasmic GFP fluorescence signal (biotin-stimulated RUSH system): screening campaigns, summary
# Procedure: FIGS. 4A-4C show the high-throughput screening of chemical compound libraries for the identification of modulators of protein secretion. […] U2OS clone #7 is plated in 384-well plates and incubated for 24 h before treatment with each compound of the Prestwick, ICCB Known Bioactives, or Autophagy Compound Library at 2 concentrations, low and high (with a 10-fold difference). […] The results of the Prestwick library screening at the low drug concentration are plotted. Brefeldin A was used as a positive control of the inhibition of secretion. The compounds causing a cytoplasmic GFP intensity below that observed for biotin-only treated cells are potential enhancers of protein secretion.
# U2OS cells were transfected with the streptavidin-KDEL plasmid using Lipofectamine 2000 (Thermo Fisher Scientific) and selected in medium supplemented with G418 (400 μg/mL, Gibco-Invitrogen) for 2 weeks. Limiting dilution in 96-well plates was used for single cell isolation from the selected pool. Clones were amplified and selected based on streptavidin immunofluorescence. Clone #BD6 showing the highest streptavidin expression was further expanded in medium supplemented with G418 (200 μg/mL) and transfected with the anti-PD-L1 IgG RUSH plasmid using Lipofectamine 2000 and selected in medium supplemented with G418 (200 μg/mL) and hygromycin (100 μg/mL, Santa Cruz Biotechnology) for 2 weeks. Limiting dilution in 96-well plates was used for single cell isolation from clone #BD6-derived selected pool. Clones were amplified and selected based on GFP fluorescence and clone #7 was selected for further characterization and screening campaigns.
# U2OS clone #7 cells were seeded in black 384-well imaging plates (Greiner bio one), 2,000 cells/well, and incubated for 24 h at 37° C. in a humidified incubator with 5% CO2. Cells were treated on the next day with the compounds from either the Prestwick library at […], the ICCB Known Bioactives library at 1/100^e or 1/1000^e, or the autophagy compound library at 10 μM or 1 μM for 4 h. […] Cells were then fixed as described above and processed for subsequent automated image acquisition using a robot-assisted IXM XL BioImager (Molecular Devices, Sunnyvale, CA, USA) equipped with a Sola light source (Lumencor, Beaverton, OR, USA), adapted excitation and emission filters (Semrock) a 16-bit monochrome sCMOS PCO.edge 5.5 camera (PCO, Kelheim, Germany). A 20× PlanAPO objective (Nikon, Tokyo, Japan) was used to acquire a minimum of 4 view fields in each well. The acquired images were processed using the open-access R software (https://www.r-project.org) with the help of freely available packages EBImage (available on the Bioconductor repository https://www.bioconductor.org), and RBioFormats (https://github.com/aoles/RBioFormats), and the custom packages MetaxpR (https://github.com/asauvat/MetaxpR) and MorphR (https://github.com/kroemerlab/MorphR). Nuclei were first detected using Hoechst 33342 signal and used as a marker to detect cytoplasmic areas based on GFP signal, allowing for the evaluation of cytoplasmic GFP intensity. Data were thereafter extracted and statistically evaluated using R (https://www.r-project.org). Data were normalized using negative and positive controls, reduced and transformed into a Z-score. The experiments were repeated manually at low scale with selected drugs to confirm their effects on secretion, in this second set of assays, U2OS clone #7 cells incubated with secretion inhibitors were fixed and stained with Hoechst as described above for imaging and viability determination based on cell counts.
# We next sought to use clone #7 in screening campaigns for the identification of drugs capable of enhancing or inhibiting antibody secretion. […] Cell counting was facilitated by nuclear counterstaining with Hoechst 33324 in order to assess viability and distinguish drug effects on the secretion kinetics from direct cytotoxicity and select relevant drugs for further characterization. […]
# [2] = test system: biotin-induced antibody release, U2OS clone #7 cells; test: Low-throughput validation by imaging of the biotin-induced antibody release (cytoplasmic GFP), clone #7; type: cell-based, human; conditions: FIG. 5C
# Procedure: FIGS. 5A-5C show selection of potential enhancers of protein secretion. FIGS. 5A and 5B) show dot plot representations of drugs efficiency based on their Z-scores measured at low and high drug concentration (FIG. 5A, Prestwick library; FIG. 5B, ICCB Known Bioactives and TargetMol Autophagy libraries). Compounds selected for further characterization are listed. (FIG. 5C) Clone #7 was treated with the indicated compounds, fixed and analyzed as described in FIG. 4A legend.
# FIG. 6A-6C show validation of enhancers of protein secretion.
# U2OS clone #7 cells were seeded in black 384-well imaging plates (Greiner bio one), 2,000 cells/well, and incubated for 24 h at 37° C. in a humidified incubator with 5% CO2. Cells were treated on the next day with the compounds from either the Prestwick library at […], the ICCB Known Bioactives library at 1/100^e or 1/1000^e, or the autophagy compound library at 10 μM or 1 μM for 4 h. […] Cells were then fixed as described above and processed for subsequent automated image acquisition using a robot-assisted IXM XL BioImager (Molecular Devices, Sunnyvale, CA, USA) equipped with a Sola light source (Lumencor, Beaverton, OR, USA), adapted excitation and emission filters (Semrock) a 16-bit monochrome sCMOS PCO.edge 5.5 camera (PCO, Kelheim, Germany). A 20× PlanAPO objective (Nikon, Tokyo, Japan) was used to acquire a minimum of 4 view fields in each well. […] Nuclei were first detected using Hoechst 33342 signal and used as a marker to detect cytoplasmic areas based on GFP signal, allowing for the evaluation of cytoplasmic GFP intensity. Data were thereafter extracted and statistically evaluated using R (https://www.r-project.org). […]
# Medium- and high-throughput screenings often yield false positive and negative hits, calling for independent validation in low-throughput experiments with orthogonal technologies. In a first round of experiments, we evaluated the effects of shortlisted compounds with potential antibody secretion enhancer activity. […]
# [3] = test system: RUSH antibody secretion, U2OS clone #7 cells; test: ELISA on immobilized PD-L1: RUSH antibody titer in supernatant of treated clone #7 cells; type: cell-based, human; conditions: PD-L1 binding ELISA
# Procedure: FIGS. 7A and 7B show validation of inhibitors of protein secretion. […] Clone #7 cells were treated with the indicated compounds and supernatants were assayed for PD-L1 binding. Brefeldin A was used as a protein secretion inhibitor positive control. […] Hoechst 33324 fluorescence was measured, which enabled to number adherent living cells in each well.
# U2OS clone #7 cells were seeded in 6-well plates and kept for 24 h at 37° C. in a humidified incubator with 5% CO2. The next day, the supernatants were removed, cells were rinsed with 37° C. pre-heated PBS and new medium containing the chemical treatment was added for 4 h. […] Then supernatants were collected and used for the ELISA assay as follows. MaxiSorp 96-well plates (Thermo Fisher Scientific) were coated with 0.5 μg/mL hFc-human-PD-L1 (R&D Systems, Minneapolis, MN) in PBS for 5.5 h at RT. Coating solution was then removed and 2% BSA/PBS blocking solution was added overnight at 4° C. The next day, wells were washed 3 times with 0.5% BSA/0.05% Tween-20/PBS solution. Supernatants were added after a ⅓ dilution in 0.5% BSA/0.05% Tween-20/PBS, for 2.3 h at RT. Wells were washed 3 times with 0.5% BSA/0.05% Tween-20/PBS solution. Anti-human kappa light chain HRP-coupled antibody was added diluted in 0.5% BSA/0.05% Tween-20/PBS at 1/4000^e for 2.3 h at RT. Wells were washed 3 times with 0.5% BSA/0.05% Tween-20/PBS solution before incubation with substrate reagents pack (R&D Systems) for 15 min in the dark. Fifty μL of STOP solution (R&D Systems) were then added to each well and the absorbance in each well was subsequently measured at 450 nm, and 635 nm for background subtraction, using a VICTOR™ X4 (PerkinElmer, Waltham, MA).
# Medium- and high-throughput screenings often yield false positive and negative hits, calling for independent validation in low-throughput experiments with orthogonal technologies. In a first round of experiments, we evaluated the effects of shortlisted compounds with potential antibody secretion enhancer activity. Compounds identified in the screening campaigns were tested again on clone #7 at a low concentration (FIG. 6A) or a ten-fold higher concentration (FIG. 6B) for their ability to increase antibody secretion. […] We further characterized these hits in an PD-L1 binding ELISA.
# SCAP = conditions: cited from earlier work
# [4] = 4 h compound, then 40 μM biotin 1 h
# [5] = ICCB Known Bioactives and TargetMol Autophagy libraries, 4 h compound, then 40 μM biotin 1 h
Compound,"secretion activator at both low and high concentration (consistently decreased fluorescent signal, among 20 best activators) [1, 4]",decrease of intracytoplasmic GFP fluorescence signal (biotin-stimulated RUSH system) [1],also measured
"C[C@]12CC[C@H](O)C[C@H]1CC[C@@H]1[C@@H]2C[C@@H](O)[C@]2(C)[C@@H](C3=CC(=O)OC3)CC[C@]12O [digoxigenin, 3-[(3S,5R,8R,9S,10S,12R,13S,14S,17R)-3,12,14-trihydroxy-10,13-dimethyl-1,2,3,4,5,6,7,8,9,11,12,15,16,17-tetradecahydrocyclopenta[a]phenanthren-17-yl]-2H-furan-5-one]",fulfilled these criteria,consistently decreased intracytoplasmic GFP fluorescence,
"O=C1CC(c2ccccc2)Oc2cc(O)cc(O)c21 (stereo not drawn) [pinocembrin, 5,7-Dihydroxy-2-phenyl-2,3-dihydro-4H-chromen-4-one]",,consistently decreased intracytoplasmic GFP fluorescence,"activity as secretion activator at both low and high concentrations [1, 5]: active at both low and high concentrations"
C[C@H]1CCC/C=C/[C@@H]2C[C@H](O)C[C@H]2[C@H](O)/C=C/C(=O)O1 [brefeldin A],,,"inhibition of the biotin-induced decrease of the GFP signal ([1]; 4 h compound, then 40 μM biotin 1 h, screening): inhibited the biotin-induced decrease of the GFP signal"
"C1N2CN3CN1CN(C2)C3 [methenamine, 1,3,5,7-tetrazatricyclo[3.3.1.13,7]decane]",fulfilled these criteria,consistently decreased intracytoplasmic GFP fluorescence,
"CCC1(CC)C(=O)C=CNC1=O [pyrithyldione, 3,3-diethyl-1H-pyridine-2,4-dione]",fulfilled these criteria,consistently decreased intracytoplasmic GFP fluorescence,
verteporfin,fulfilled these criteria,,phototoxicity leading to GFP bleaching ([1]; data not shown): phototoxicity that leads to GFP bleaching
"C[C@@H]1C[C@@H]([C@H](O)CC2CC(=O)NC(=O)C2)C(=O)[C@@H](C)C1 [cycloheximide, 4-[(2R)-2-[(1S,3S,5S)-3,5-dimethyl-2-oxocyclohexyl]-2-hydroxyethyl]piperidine-2,6-dione]",fulfilled these criteria,consistently decreased intracytoplasmic GFP fluorescence,
"O[C@H]1[C@H]2c3cc4c(cc3CN3CCC(=C[C@@H]1O)[C@H]23)OCO4 [lycorine, 3,12-Didehydro-2′H-[1,3]dioxolo[4′,5′:9,10]galanthan-1α,2β-diol]",,consistently decreased intracytoplasmic GFP fluorescence,"efficiency as secretion activator, high concentration ([1]; ICCB Known Bioactives and TargetMol Autophagy libraries, high concentration): not among the 20 most active compounds at the high concentration; efficiency as secretion activator, low concentration ([1]; ICCB Known Bioactives and TargetMol Autophagy libraries, low concentration): more efficient than any other compound at low concentration; effect on secretion by cell imaging [2]: secretion activator effect; RUSH antibody titers in treated cell culture supernatant ([3]; summary): shown to increase RUSH antibody titers; effect on antibody secretion compared with sodium butyrate ([3]; 1 and 50 μM): milder than that of sodium butyrate; antibody secretion-stimulatory activity ([3]; lycorine tested at both 1 and 50 μM, 4 h compound, biotin 1 h): considered to be active; SCAP inhibition (SCAP; orally active): potent and orally active SCAP inhibitor; SCAP protein level (SCAP; without changing its transcription): downregulates"
O=C(O)CCNC(=O)c1ccc(/N=N/c2ccc(O)c(C(=O)O)c2)cc1 [balsalazide sodium],fulfilled these criteria,,
CC[C@H]1CN2CCc3cc(OC)c(OC)cc3[C@@H]2C[C@@H]1C[C@H]1NCCc2cc(OC)c(OC)cc21 [emetine],,,"activity as secretion activator at both low and high concentrations [1, 5]: active at both low and high concentrations"
